Measured values reported in patent US11162944B2, “Compositions and methods” (priority 2015, dated 2021).
Read-outs that look alike come from different tables or passages of the source. Marks after values point to notes of the source that are not given here.

Tested on: biomarker (antibody) in serum samples from patients with symptoms of tuberculosis
Type: binding, human

CCCCCCCCCCCCCCCCCCCCCC[C@@H](C(=O)OC[C@H]1O[C@H](OC)[C@@H](O)[C@@H]1O)[C@H](O)CCCCCCCCCCCCCCCCC[C@@H]1C[C@@H]1CCCCCCCCCCCCCCCC[C@@H](OC)[C@@H](C)CCCCCCCCCCCCCCCCCC [Antigen A]
ELISA absorbance at 492 nm (serum sample 1 TB+): 0.28* | ELISA absorbance at 492 nm (serum sample 2 TB+): 0.29* | ELISA absorbance at 492 nm (serum sample 3 TB+): 0.30* | ELISA absorbance at 492 nm (serum sample 4 TB+): 0.50* | ELISA absorbance at 492 nm (serum sample 5 TB+): 0.28* | ELISA absorbance at 492 nm (serum sample 6 TB+): 0.28* | ELISA absorbance at 492 nm (serum sample 7 TB+): 0.93* | ELISA absorbance at 492 nm (serum sample 8 TB+): 0.47* | ELISA absorbance at 492 nm (serum sample 9 TB+): 0.29* | ELISA absorbance at 492 nm (serum sample 10 TB−): 0.21 | ELISA absorbance at 492 nm (serum sample 11 TB−): 0.20 | ELISA absorbance at 492 nm (serum sample 12 TB−): 0.18 | ELISA absorbance at 492 nm (serum sample 13 TB−): 0.22 | ELISA absorbance at 492 nm (serum sample 14 TB−): 0.49* | ELISA absorbance at 492 nm (serum sample 15 TB−): 0.23 | ELISA absorbance at 492 nm (serum sample 16 TB−): 0.31* | ELISA absorbance at 492 nm (serum sample 17 TB−): 0.52* | ELISA absorbance at 492 nm (serum sample 18 TB−): 0.28* | ELISA absorbance at 492 nm (serum sample 19 TB−): 0.20 | ELISA absorbance at 492 nm (serum sample 20 TB−): 0.34* | ELISA absorbance at 492 nm (serum sample 21 TB−): 0.47* | ELISA absorbance at 492 nm (serum sample 22 TB−): 0.23 | ELISA absorbance at 492 nm (serum sample 23 TB−): 0.25 | ELISA absorbance at 492 nm (serum sample 24 TB−): 0.29* | ELISA absorbance at 492 nm (serum sample 25 TB−): 0.18 | ELISA absorbance at 492 nm (serum sample 26 TB−): 0.52* | ELISA absorbance at 492 nm (serum sample 27 TB−): 0.31* | ELISA absorbance at 492 nm (serum sample 28 TB−): 0.28* | ELISA absorbance at 492 nm (serum sample 29 TB−): 0.28* | ELISA absorbance at 492 nm (serum sample 30 TB−): 0.32* | ELISA absorbance at 492 nm (serum sample 31 TB−): 0.31* | ELISA absorbance at 492 nm (serum sample 32 TB−): 0.34* | ELISA absorbance at 492 nm (serum sample 33 TB−): 0.18 | ELISA absorbance at 492 nm (serum sample 34 TB−): 0.39* | ELISA absorbance at 492 nm (serum sample 35 TB−): 0.23 | ELISA absorbance at 492 nm (serum sample 36 TB−): 0.11 | ELISA absorbance at 492 nm (serum sample 37 TB−): 0.28* | ELISA absorbance at 492 nm (serum sample 38 TB−): 0.29* | ELISA absorbance at 492 nm (serum sample 39 TB−): 0.21 | ELISA absorbance at 492 nm (serum sample 40 TB−): 0.18 | ELISA absorbance at 492 nm (serum sample 41 TB−): 0.18 | ELISA absorbance at 492 nm (serum sample 42 TB−): 0.30* | ELISA absorbance at 492 nm (serum sample 43 TB−): 0.25 | ELISA absorbance at 492 nm (serum sample 44 TB−): 0.41* | ELISA absorbance at 492 nm (serum sample 45 TB−): 0.33* | ELISA absorbance at 492 nm (serum sample 46 TB−): 0.13 | ELISA absorbance at 492 nm (serum sample 47 TB−): 0.34* | ELISA absorbance at 492 nm (serum sample 48 TB−): 0.32* | ELISA absorbance at 492 nm (serum sample 49 TB−): 0.38* | ELISA absorbance at 492 nm (serum sample 50 TB−): 0.35* | ELISA absorbance at 492 nm (serum sample 51 TB−): 0.11 | ELISA absorbance at 492 nm (serum sample 52 TB−): 0.21 | ELISA absorbance at 492 nm (serum sample 53 TB−): 0.16 | ELISA absorbance at 492 nm (serum sample 54 TB−): 0.17 | ELISA absorbance at 492 nm (serum sample 55 TB−): 0.24 | ELISA absorbance at 492 nm (serum sample 56 TB−): 0.68* | ELISA absorbance at 492 nm (serum sample 57 TB−): 0.25 | ELISA absorbance at 492 nm (serum sample 58 TB−): 0.25 | ELISA absorbance at 492 nm (serum sample 59 TB−): 0.33* | ELISA absorbance at 492 nm (serum sample 60 TB−): 0.37* | ELISA absorbance at 492 nm (serum sample 61 TB−): 0.52* | ELISA absorbance at 492 nm (serum sample 62 TB−): 0.19 | ELISA absorbance at 492 nm (serum sample 63 TB−): 0.16 | ELISA absorbance at 492 nm (serum sample 64 TB−): 2.50*
